From paper PMC7565988, “Insight into the Anticancer Activity of Copper(II) 5-Methylenetrimethylammonium-Thiosemicarbazonates and Their Interaction with Organic Cation Transporters” (Biomolecules, 2020)
Like-named read-outs stand apart in the source and are kept apart here.

Assays:
[1] = Solution stability of copper(II) complexes, UV/Vis spectrophotometric titration; assay type: physicochemical; conditions: for logβ [Cu(HL)]2+ / logβ [CuL]+: copper(II) complex of the proligand; for logβ [Cu(HL)]2+ / logβ [CuL]+ / logβ [CuLH−1]: I = 0.1 M (KCl), t = 25 °C; for logKderived [CuLH−1]+: logβ [CuL]+ − pKa (H2L+); for logβ [CuLH−1]: mixed hydroxido [CuL(OH)] species; for pCu (−log[Cu(II)]): pH = 7.4, cCu(II) = 10 μM, cL = 10 μM
Experimental: (§1) An Agilent Carry 8454 diode array spectrophotometer was used to record the UV/Vis spectra in the interval 200–800 nm. The path length was 1 cm. Proton dissociation constants (pKa) of the TSC ligands, the overall stability constants of the copper(II) monoligand complexes (logβ) and the individual spectra of the species in the various protonation states and stoichiometry were calculated by the computer program PSEQUAD [44]. Spectrophotometric titrations were performed on samples containing the proligands at 50 μM concentration by a KOH solution in the presence of 0.1 M KCl at 25.0 ± 0.1 °C in the pH range from 2 to 11.5, and the metal-to-ligand ratio was 1:0, 1:1 and 1:2. An Orion 710A pH-meter equipped with a Metrohm combined electrode (type 6.0234.100) and a Metrohm 665 Dosimat burette were used for the titrations. […] The average water ionisation constant (pKw) is 13.76 ± 0.05 in water. Argon was also passed over the solutions during the titrations. Measurements were also carried out in the range of ca. 1.0–2.0 by preparing individual samples in which KCl was partially or completely replaced by HCl and pH values (between 1 and 2) were calculated from the strong acid content.

[2] = Proton dissociation constants (pKa) of proligands by UV/Vis spectrophotometric titration; assay type: physicochemical; conditions: for % HL at pH 7.4: fraction of proligand in neutral zwitterionic HL form at pH 7.4, computed with pKa; for pKa: proligand, phenolic OH, I = 0.1 M (KCl), t = 25 °C, water, read-out: pKa (H2L+)
Experimental: as §1

[3] = test system: Colo 205 doxorubicin-sensitive colonic adenocarcinoma cells; assay: MTT cytotoxicity (24 h) / antiproliferation (72 h) assay; assay type: cell-based, human; conditions: Homo sapiens, read-out: Colo205 IC50
Experimental: Human doxorubicin-sensitive Colo 205 (ATCC-CCL-222) and multidrug resistant Colo 320 (overexpressing ABCB1 (MDR1)-LRP (ATCC-CCL-220.1)) colonic adenocarcinoma cell lines were purchased from LGC Promochem, Teddington, UK. The cells were cultured in RPMI 1640 medium supplemented with 10% heat-inactivated fetal bovine serum, 2 mM L-glutamine, 1 mM Na-pyruvate and 100 mM Hepes. The cell lines were incubated at 37 °C, in a 5% CO2, 95% air atmosphere. The semi-adherent human colon cancer cells were detached with Trypsin-Versene (EDTA) solution for 5 min at 37 °C.
In the study non-cancerous human embryonic lung fibroblast MRC-5, human colonic adenocarcinoma cell line (doxorubicin-sensitive Colo 205, multidrug resistant Colo 320) and neuroblastoma cell line SH-SY5Y were used to determine the effect of compounds on cell growth. The effects of increasing concentrations of compounds on cell growth were tested in 96-well flat-bottomed microtiter plates. The compounds were diluted in a volume of 100 μL of medium.
In case of the colonic adenocarcinoma cells, the two-fold serial dilutions of compounds were prepared in 100 μL of RPMI 1640, horizontally. The semi-adherent colonic adenocarcinoma cells were treated with Trypsin–Versene (EDTA) solution. The cells were adjusted to a density of 2 × 10^4 cells in 100 μL of RPMI 1640 medium, and were added to each well, with the exception of the medium control wells. The final volume of the wells containing compounds and cells was 200 μL.
The culture plates were incubated at 37 °C for 24 h; at the end of the incubation period, 20 μL of MTT (thiazolyl blue tetrazolium bromide, Sigma) solution (from a stock solution of 5 mg/mL) were added to each well. After incubation at 37 °C for 4 h, 100 μL of sodium dodecyl sulfate (SDS) (Sigma) solution (10% in 0.01 M HCI) were added to each well and the plates were further incubated at 37 °C overnight. Cell growth was determined by measuring the optical density (OD) at 540/630 nm with Multiscan EX ELISA reader (Thermo Labsystems, Cheshire, WA, USA). […] Curves were fitted by GraphPad Prism software using the sigmoidal dose-response model (comparing variable and fixed slopes).
The method is similar to the one described in the assay for cytotoxic effect. […] The culture plates were incubated at 37 °C for 72 h and after the incubation time, the plates were stained with MTT according to the previous experimental protocol described for the cytotoxicity assay.

Compound	logβ [Cu(HL)]2+ [1]	logβ [CuL]+ [1]	logKderived [CuLH−1]+ [1]	logβ [CuLH−1] [1]	pCu (−log[Cu(II)]) [1]	% HL at pH 7.4 [2]	pKa [2]	IC50 ([3]; COLO 205, 24 h exposure)	IC50 ([3]; COLO 205, 72 h exposure)
CCNC(=S)N/N=C/c1cc(C[N+](C)(C)C)ccc1O [[H2L^Et]Cl]	11.66 ± 0.03	7.67 ± 0.03	0.36	−1.65 ± 0.09	11.82	55%	7.31 ± 0.01	> 100 µM	> 100 µM
C[N+](C)(C)Cc1ccc(O)c(/C=N/NC(N)=S)c1 [[H2L^H]Cl]	12.00 ± 0.01	8.14 ± 0.01	0.68	−1.66 ± 0.02	12.21	47%	7.46 ± 0.01	> 100 µM	> 100 µM
CNC(=S)N/N=C/c1cc(C[N+](C)(C)C)ccc1O [[H2L^Me]Cl]	11.73 ± 0.02	7.76 ± 0.02	0.22	−1.48 ± 0.08	11.79	42%	7.54 ± 0.01	> 100 µM	> 100 µM
C[N+](C)(C)Cc1ccc(O)c(/C=N/NC(=S)Nc2ccccc2)c1 [[H2L^Ph]Cl]	11.26 ± 0.02	8.55 ± 0.02	1.52	−1.31 ± 0.05	12.80	70%	7.03 ± 0.01	> 100 µM	> 100 µM
